Values after ≈ are worked out from the molar mass of the structure shown.

From paper PMC6272341, “Synthesis and Biological Evaluation of N-Alkoxyphenyl-3-hydroxynaphthalene-2-carboxanilides” (Molecules, 2015) come the findings set out here.

For assay [1], the system named is M. tuberculosis H37Ra ATCC 25177. Kind of assay: In vitro antimycobacterial evaluation, alamarBlue (MIC). The class given is cell-based. As to conditions: Mycobacterium tuberculosis, 168 h; M. tuberculosis H37Ra; 7 days, 37 °C, alamarBlue; MIC/IC90; read-out: MIC MT. As to the method: The evaluation of the in vitro antimycobacterial activity of the compounds was performed against M. tuberculosis H37Ra ATCC 25177 [25] and clinical isolate of M. avium subsp. paratuberculosis CIT03 [26], see Table 1. The activity of compounds was expressed as the minimum inhibitory concentration (MIC) that is defined for mycobacteria as a 90% or greater (IC90) reduction of growth in comparison with the control. The MIC/IC90 value is routinely and widely used in bacterial assays, being a standard detection limit according to the Clinical and Laboratory Standards Institute.
Mycobacterium tuberculosis H37Ra ATCC 25177 and well characterised clinical isolate M. avium subsp. paratuberculosis CIT03 were grown in Middlebrook broth (MB), supplemented with Oleic-Albumin-Dextrose-Catalase supplement (Becton Dickinson, Oxford, UK) and mycobactin J (2 μg/mL). Identification of these isolates was performed using biochemical and molecular protocols. At log phase growth, a culture sample (10 mL) was centrifuged at 15,000 rpm/20 min using a bench top centrifuge (Model CR 4-12, Jouan Inc., Winchester, VA, USA). Following removal of the supernatant, the pellet was washed in fresh Middlebrook 7H9GC broth and re-suspended in fresh supplemented MB (10 mL). The turbidity was adjusted to match McFarland standard No. 1 (3 × 10^8 cfu) with MB broth. A further 1:20 dilution of the culture was then performed in MB broth. The antimicrobial susceptibility of all three mycobacterial species was investigated in a 96-well plate format. In these experiments, sterile deionised water (300 µL) was added to all outer-perimeter wells of the plates to minimize evaporation of the medium in the test wells during incubation. Sample wells were composed of 100 µL of test compound dilution and 100 µL of the bacterial stock being tested against. Dilutions of each compound were prepared in duplicate. For all synthesized compounds, final concentrations ranged from 1000 μg/mL to 8 μg/mL. All compounds were prepared in DMSO and subsequent dilutions were made in supplemented MB. The plates were sealed with parafilm and incubated at 37 °C, for 7 days in the case of M. tuberculosis and 11 days in the case of M. avium subsp. paratuberculosis. Following incubation, a 10% addition of alamarBlue (AbD Serotec, Kidlington, UK) was mixed into each well and readings at 570 nm and 600 nm were taken, initially for background subtraction and subsequently after 24 h re-incubation. The background subtraction is necessary for strongly coloured compounds, where the colour may interfere with the interpretation of any colour change. For non-interfering compounds, a blue colour in the well was interpreted as an absence of growth and a pink colour was scored as growth. […] The MIC value is routinely and widely used in bacterial assays and is a standard detection limit according to the Clinical and Laboratory Standards Institute (CLSI,). Rifampicin (Sigma-Aldrich) was used as the standard as it is clinically used antimycobacterial drugs.
Background: The colour change of resazurin is a common sign of viable cells or microbes.

The test system of assay [2] is clinical isolate of M. avium subsp. paratuberculosis CIT03. Described as above. The class given is cell-based. The following applies: Mycobacterium avium, 264 h, read-out: MIC MAP.
Assay [3] has as its system photosynthetic electron transport in spinach chloroplasts. Kind of assay: Inhibition of photosynthetic electron transport (PET), DCPIP photoreduction (Hill reaction). The class given is biochemical, spinach (Spinacia oleracea L.). As to the method:
The PET inhibiting activity of the compounds was expressed by IC50 values. […] The aqueous solubility of the para-substituted compounds was limited; therefore IC50 values could not be determined due to precipitation of compounds during experiment. […]
Chloroplasts were prepared from spinach (Spinacia oleracea L.) according to Masarovicova and Kralova. The inhibition of photosynthetic electron transport (PET) in spinach chloroplasts was determined spectrophotometrically (Genesys 6, Thermo Scientific Corporation), using an artificial electron acceptor 2,6-dichlorophenol-indophenol (DCPIP) according to Kralova et al., and the rate of photosynthetic electron transport was monitored as a photoreduction of DCPIP. The measurements were carried out in phosphate buffer (20.0 mM, pH 7.2) containing sucrose (0.4 M), MgCl2 (5.0 mM) and NaCl (15.0 mM). The chlorophyll content was 30 mg/L in these experiments and the samples were irradiated (~100 W/m^2 with 10 cm distance) with a halogen lamp (250 W) using a 4 cm water filter to prevent warming of the samples (suspension temperature 22 °C). The studied compounds were dissolved in DMSO due to their limited aqueous solubility. The applied DMSO concentration (up to 4%) had negligible effect on the photochemical activity in isolated spinach chloroplasts (observed differences in DCPIP photoreduction due DMSO addition were within experimental error). The inhibitory efficiency of the studied compounds was expressed by IC50 values, i.e., by molar concentration of the compounds causing 50% decrease in DCPIP photoreduction relative to the untreated control. […] All reagents used in this study were of analytical grade and were purchased from Sigma.

For assay [4], the system named is Chla-protein complexes of photosystem II in spinach chloroplasts. The experiment in a line: Chlorophyll a fluorescence emission spectra in spinach chloroplasts. The class given is biochemical, spinach (Spinacia oleracea L.). The following applies: 0, 102, 204, 408 and 612 μM; λex = 436 nm; band at 686 nm. An excerpt: The studied compounds affected chlorophyll a (Chla) fluorescence in spinach chloroplasts indicating their interactions with constituents of photosynthetic apparatus. […] The extent of perturbation of Chla-protein complexes in the thylakoid membrane is reflected in the sharpness of decreased fluorescence of Chla pigment. A similar decrease of Chla fluorescence in plant chloroplasts was also observed previously after treatment with ring-substituted 1-hydroxynaphthalene-2-carboxanilides, 2-hydroxynaphthalene-1-carboxanilides, 5-bromo- and 3,5-dibromo-2-hydroxy-N-phenyl-benzamides and ring-substituted 4-arylamino-7-chloroquinolinium chlorides.
The emission fluorescence spectra were recorded on a fluorescence spectrophotometer F-2000 (Hitachi, Tokyo, Japan) at room temperature (24 °C). The samples of chloroplast suspension (10 mg chlorophyll/L) with and without the studied inhibitor were excited at 436 nm, using an excitation slit 20 nm and emission slit 10 nm, and were kept in the dark for 2 min prior to the measurement. Due to low aqueous solubility the compounds were added to a chloroplast suspension in DMSO solution. The DMSO concentration in all samples was the same as in the control (10%).

Assay [5] has as its system S. aureus ATCC 29213. Kind of assay: In vitro antibacterial susceptibility testing, broth dilution micro-method (MIC). The following applies: Staphylococcus aureus, ATCC29213, 24 h, read-out: MIC SA. (In general: In broth dilution the organism is exposed to a series of concentrations in liquid medium.)
For assay [6], the system named is methicillin-resistant S. aureus clinical isolate MRSA 63718. The assay is described as above. The following applies: Staphylococcus aureus, MRSA, 24 h, read-out: MIC MRSA 63718, clinical isolate MRSA 63718; 24 h, 37 °C, MH broth.
Assay [7] concerns methicillin-resistant S. aureus clinical isolate SA 630. The assay is described as above. The following applies: Staphylococcus aureus, MRSA, 24 h, read-out: MIC MRSA SA 630, clinical isolate MRSA SA 630, 37 °C, MH broth.
Assay [8] has as its system methicillin-resistant S. aureus clinical isolate SA 3202. The description is as above. As to conditions: Staphylococcus aureus, MRSA, 24 h, read-out: MIC MRSA 3202, clinical isolate MRSA 3202, 37 °C, MH broth.

In general, MIC refers to the smallest concentration in the dilution series that meets the test's criterion for growth inhibition. The IC50 is the point on the concentration scale where inhibition reaches its midpoint. Read a low IC50 as inhibition by little substance. As to `CCOc1cccc(NC(=O)c2cc3ccccc3cc2O)c1` [Compound 4b, N-(3-Ethoxyphenyl)-3-hydroxynaphthalene-2-carboxamide], the MIC was determined as 813 µM (≈ 250 µg/mL) in assay [1]; 813 µM (≈ 250 µg/mL) in assay [2]; 832 µM (≈ 256 µg/mL) in assay [5]; 832 µM (≈ 256 µg/mL) in assay [6]; 832 µM (≈ 256 µg/mL) in assay [7]; 832 µM (≈ 256 µg/mL) in assay [8]. Moreover, the IC50 in assay [3] came to 4.5 µM. Moreover, in assay [4], the “chlorophyll a fluorescence emission” value is “decreased intensity of the emission band at 686 nm”.
